Legend:
CT26/KSA colon carcinoma = test: tumor growth assay, CT26/KSA model; format: in vivo, mice; conditions: Experiments CT26-1-3; 3 or 4 Gy day 0 followed by EMD521873 5 mg/kg i.v. days 2, 3, 4
From the text: CT26 cells, a murine colon epithelial cell line derived by intrarectal injection of N-nitroso-N-methylurethane in BALB/C mice, were transfected to express the human KS antigen (KSA or EpCAM) that was cloned by PCR and expressed in parental cells using a retroviral vector (Gillies 1998). CT26/KSA cells were maintained in DMEM, supplemented with 10% heat inactivated fetal bovine serum, L-glutamine, vitamins, sodium pyruvate, non-essential amino acids, penicillin/streptomycin and Geneticin® (G418) (Life Technologies, Inc.) at 37° C. and 7% CO2. G418 was added to maintain KSA expression. CT26 and CT26/KSA cells were implanted in female BALB/C mice.
For the tumor growth assay, cells growing exponentially in culture were injected as a single cell suspension in 100 μl of PBS intramuscularly into the upper legs of the mice. […] Thereafter, animal survival was monitored. […] Mice were treated on days 0 to 6 and day 17, and tumor size was measured twice weekly for the duration of the study.
Tumors were measured with calipers in three dimensions for the duration of the experiment. Tumor volumes were calculated using the equation: […]
The effect of a single dose of radiation given on day 0 followed by i.v. dosing of the immunocytokine (5 mg/kg) was evaluated in three subcutaneous syngeneic tumor models (CT26 colon carcinoma, CT26/KSA colon carcinoma which expresses human EpCAM, and B16 melanoma). […]

[1] = tested on: immune effector cell populations in blood; test: FACS analysis of immune effector cell populations in blood, CT26/KSA model; format: in vivo, mice
Method: Immune effector cell populations in blood were analyzed by FACS. Blood was collected from the retro-orbital sinus of each mouse. Red blood cells were eliminated using lysis buffer. After blocking with rat IgG (1:50), samples were incubated with a 7-color cocktail of antibodies against CD4, CD8, CD25, CD44, CD62L, CD11b, and DX5. Samples were run on a FacsARIA and analyzed for various cell subpopulations.

dI-NHS76γ2(h)(FN>AQ)-ala-IL2(D20T) [EMD521873]
anti-tumor effect (complete regressions) (CT26/KSA colon carcinoma): a majority of the animals achieved complete regressions | CD4+CD25+ lymphocyte subpopulation in the blood ([1]; radiation followed by EMD521873 (combination)): increased | increase in effector T cells in the blood ([1]; radiation followed by EMD521873, compared to either therapy alone): 4 fold

Source: patent publication US20100330029A1, “Cancer Treatments with Radiation and Immunocytokines” (Merck Patent GmbH, priority 2008, published 2010)
